Earlier results, collected in US20190090531A1, “TOBACCO FILLING FOR NON-COMBUSTION-TYPE HEATING SMOKING ARTICLE” (JAPAN TOBACCO INC., priority 2016, published 2019).
Like-named read-outs stand apart in the source and are kept apart here.

[1] = Table 1, in water at normal temperature (25° C.)

| SMILES | Acid dissociation constant pKa1 [1] | Acid dissociation constant pKa1 (Table 2, in water at 25° C.) |
| --- | --- | --- |
| CCCCCCCCCCCCCC(=O)O [Myristic acid] | ≈5.00 | – |
| CCCCCCCCCCCCCCCCCCCCCCCC(=O)O [Lignoceric acid] | ≈5.00 | ≈5.00 |
| CCCCCCCCCCCCCCCC(=O)O [Palmitic acid] | ≈5.00 | – |
| CCCCCCCCCCCCCCCCCCCCCCCCCCCC(=O)O [Octacosanoic acid] | ≈5.00 | – |
| O=C1O[C@H]([C@H](O)CO)C(O)=C1O [Isoascorbic acid] | 4.13 | 4.13 |
| CCCCCCCCCC(=O)O [Decanoic acid] | 4.90 | – |
| CCCCCCCCCCCCCCCCCCC(=O)O [Nonadecanoic acid] | ≈5.00 | ≈5.00 |
| CC(=O)C(=O)O [Pyruvic acid] | 2.50 | – |
| CCCCCCCCCCCC(=O)O [Lauric acid] | 5.20 | – |
| CCCCCCCCCCCCCCCCCC(=O)O [Stearic acid] | ≈5.00 | – |
| C/C=C/C=C/C(=O)O [Sorbic acid] | 4.76 | – |
| CCCCCCCCCCCCCCCCCCCCC(=O)O [Heneicosanoic acid] | ≈5.00 | – |
| CC/C=C\C/C=C\C/C=C\CCCCCCCC(=O)O [Linolenic acid] | ≈5.00 | – |
| CC(=O)CCC(=O)O [Levulinic acid] | 4.44 | – |
